Reference: PubChem BioAssay (NCI)
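How tested: cells in 96-well plates exposed to compound for 48 hours at five concentrations. TGI: concentration producing complete growth inhibition.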

Experiments:
Experiment in all cases: NCI anticancer screen, dose series, 48 h
[1] = system: OVCAR-8 ovarian
[2] = system: T-47D breast
[3] = system: A498 renal
[4] = system: MDA-MB-231 breast
[5] = system: ACHN renal
[6] = system: HOP-92 NSCLC
[7] = system: MALME-3M melanoma
[8] = system: COLO 205 colon
[9] = system: PC-3 prostate
[10] = system: OVCAR-5 ovarian
[11] = system: SK-OV-3 ovarian
[12] = system: HCC-2998 colon
[13] = system: IGROV1 ovarian
[14] = system: MCF7 breast
[15] = system: CCRF-CEM leukemia
[16] = system: HCT-116 colon
[17] = system: A549 NSCLC
[18] = system: 786-0 renal
[19] = system: UACC-257 melanoma
[20] = system: RXF 393 renal
[21] = system: HL-60(TB) leukemia
[22] = system: UO-31 renal
[23] = system: SK-MEL-2 melanoma
[24] = system: SF-539 CNS
[25] = system: NCI/ADR-RES ovarian
[26] = system: U251 CNS
[27] = system: MDA-N
[28] = system: SF-295 CNS
[29] = system: KM12 colon
[30] = system: CAKI-1 renal
[31] = system: SNB-19 CNS
[32] = system: TK-10 renal
[33] = system: HOP-62 NSCLC
[34] = system: NCI-H460 lung
[35] = system: SNB-75 CNS
[36] = system: SW-620 colon
[37] = system: OVCAR-4 ovarian
[38] = system: NCI-H226 lung
[39] = system: HCT-15 colon
[40] = system: MOLT-4 leukemia
[41] = system: HT29 colon
[42] = system: MDA-MB-435
[43] = system: HS 578T breast
[44] = system: DU-145 prostate
[45] = system: NCI-H23 lung
[46] = system: SR leukemia
[47] = system: OVCAR-3 ovarian
[48] = system: SK-MEL-28 melanoma
[49] = system: M14 melanoma
[50] = system: SN12C renal
[51] = system: SK-MEL-5 melanoma
[52] = system: EKVX NSCLC
[53] = system: UACC-62 melanoma
[54] = system: LOX IMVI melanoma
[55] = system: SF-268 CNS
[56] = system: RPMI-8226 leukemia
[57] = system: NCI-H522 lung
[58] = system: K-562 leukemia

O=C(NCCOC(=O)OCCNC(=O)NC1CCCCC1)NC1CCCCC1
TGI [1]: > 100 µM
TGI [2]: > 100 µM
TGI [3]: > 100 µM
TGI [4]: > 100 µM
TGI [5]: > 100 µM
TGI [6]: 79 µM
TGI [7]: > 100 µM
TGI [8]: > 100 µM
TGI [9]: > 100 µM
TGI [10]: > 100 µM
TGI [11]: > 100 µM
TGI [12]: > 100 µM
TGI [13]: > 100 µM
TGI [14]: > 100 µM
TGI [15]: > 100 µM
TGI [16]: > 100 µM
TGI [17]: > 100 µM
TGI [18]: > 100 µM
TGI [19]: > 100 µM
TGI [20]: > 100 µM
TGI [21]: > 100 µM
TGI [22]: > 100 µM
TGI [23]: > 100 µM
TGI [24]: > 100 µM
TGI [25]: > 100 µM
TGI [26]: > 100 µM
TGI [27]: > 100 µM
TGI [28]: > 100 µM
TGI [29]: > 100 µM
TGI [30]: > 100 µM
TGI [31]: > 100 µM
TGI [32]: > 100 µM
TGI [33]: > 100 µM
TGI [34]: > 100 µM
TGI [35]: > 100 µM
TGI [36]: > 100 µM
TGI [37]: > 100 µM
TGI [38]: > 100 µM
TGI [39]: > 100 µM
TGI [40]: > 100 µM
TGI [41]: > 100 µM
TGI [42]: > 100 µM
TGI [43]: > 100 µM
TGI [44]: > 100 µM
TGI [45]: > 100 µM
TGI [46]: > 100 µM
TGI [47]: > 100 µM
TGI [48]: > 100 µM
TGI [49]: > 100 µM
TGI [50]: > 100 µM
TGI [51]: > 100 µM
TGI [52]: > 100 µM
TGI [53]: > 100 µM
TGI [54]: > 100 µM
TGI [55]: > 100 µM
TGI [56]: > 100 µM
TGI [57]: > 100 µM
TGI [58]: > 100 µM

O=C1NC2c3c(I)sc(I)c3/C(=N\O)C2O1 (stereo unspecified)
TGI [1]: 43.4 µM
TGI [2]: > 100 µM
TGI [3]: > 100 µM
TGI [4]: 95.8 µM
TGI [5]: 33.6 µM
TGI [6]: 68.1 µM
TGI [7]: 50.2 µM
TGI [8]: 48.8 µM
TGI [9]: > 100 µM
TGI [10]: > 100 µM
TGI [11]: > 100 µM
TGI [12]: > 100 µM
TGI [13]: 45 µM
TGI [14]: > 100 µM
TGI [15]: 80.3 µM
TGI [16]: 75.4 µM
TGI [17]: > 100 µM
TGI [18]: 57.1 µM
TGI [19]: > 100 µM
TGI [20]: 44.5 µM
TGI [21]: 83.5 µM
TGI [22]: 32.7 µM
TGI [23]: > 100 µM
TGI [24]: 42.6 µM
TGI [25]: 47.7 µM
TGI [26]: 76.9 µM
TGI [27]: > 100 µM
TGI [28]: > 100 µM
TGI [29]: > 100 µM
TGI [30]: > 100 µM
TGI [31]: 58.2 µM
TGI [32]: > 100 µM
TGI [33]: > 100 µM
TGI [34]: > 100 µM
TGI [35]: > 100 µM
TGI [36]: 60.6 µM
TGI [37]: 89.8 µM
TGI [38]: > 100 µM
TGI [39]: > 100 µM
TGI [40]: > 100 µM
TGI [41]: 33.4 µM
TGI [42]: > 100 µM
TGI [43]: 70.4 µM
TGI [44]: > 100 µM
TGI [45]: 56.8 µM
TGI [46]: > 100 µM
TGI [47]: 40.2 µM
TGI [48]: > 100 µM
TGI [49]: > 100 µM
TGI [50]: > 100 µM
TGI [52]: 35.1 µM
TGI [53]: > 100 µM
TGI [54]: > 100 µM
TGI [55]: 67.8 µM
TGI [56]: > 100 µM
TGI [58]: > 100 µM

COC(=O)[C@]12CC[C@H]3CN(C(=O)OCc4ccccc4)[C@H]([C@H]31)[C@H](c1ccco1)N2
TGI [1]: > 100 µM
TGI [2]: > 100 µM
TGI [3]: 36.3 µM
TGI [4]: > 100 µM
TGI [5]: > 100 µM
TGI [6]: > 100 µM
TGI [7]: 80.2 µM
TGI [8]: 40.9 µM
TGI [9]: > 100 µM
TGI [10]: > 100 µM
TGI [11]: > 100 µM
TGI [12]: > 100 µM
TGI [13]: > 100 µM
TGI [14]: > 100 µM
TGI [15]: > 100 µM
TGI [16]: > 100 µM
TGI [17]: > 100 µM
TGI [18]: > 100 µM
TGI [19]: 81.4 µM
TGI [20]: > 100 µM
TGI [21]: 84.4 µM
TGI [22]: > 100 µM
TGI [23]: > 100 µM
TGI [24]: > 100 µM
TGI [25]: 51.7 µM
TGI [26]: > 100 µM
TGI [27]: > 100 µM
TGI [28]: > 100 µM
TGI [29]: > 100 µM
TGI [30]: > 100 µM
TGI [31]: > 100 µM
TGI [32]: > 100 µM
TGI [33]: > 100 µM
TGI [34]: > 100 µM
TGI [36]: > 100 µM
TGI [37]: 31.2 µM
TGI [38]: > 100 µM
TGI [39]: 84.5 µM
TGI [40]: 64.5 µM
TGI [41]: > 100 µM
TGI [42]: 61.8 µM
TGI [43]: > 100 µM
TGI [44]: > 100 µM
TGI [45]: 42.2 µM
TGI [46]: > 100 µM
TGI [47]: > 100 µM
TGI [48]: > 100 µM
TGI [49]: > 100 µM
TGI [50]: > 100 µM
TGI [51]: 37.3 µM
TGI [52]: > 100 µM
TGI [53]: > 100 µM
TGI [54]: > 100 µM
TGI [55]: > 100 µM
TGI [56]: > 100 µM
TGI [57]: 39.1 µM
TGI [58]: > 100 µM
